Test results published in patent US20230295109A1, “PYRIDINONE COMPOUNDS FOR THE TREATMENT OF AUTOIMMUNE DISEASE” (F. Hoffmann-La Roche AG, priority 2020, published 2023).

How the values were obtained:
TLR9 = target: T1, TLR9 (Homo sapiens, UniProt Q9NR96); assay: Human PBMC cell-based assay, TLR9 (CpG ODN 2216); parameters: These cells express TLR7, TLR8, or TLR9, and therefore are natural responders to respective ligand stimulation; endogenous in cells; host or cells: primary human PBMC from healthy donor whole blood; details: CpG ODN 2216 at 1 µM, overnight, cytokine levels, read-out: hPBMC/TLR9 IC50
T1 sequence (Q9NR96 26-1032): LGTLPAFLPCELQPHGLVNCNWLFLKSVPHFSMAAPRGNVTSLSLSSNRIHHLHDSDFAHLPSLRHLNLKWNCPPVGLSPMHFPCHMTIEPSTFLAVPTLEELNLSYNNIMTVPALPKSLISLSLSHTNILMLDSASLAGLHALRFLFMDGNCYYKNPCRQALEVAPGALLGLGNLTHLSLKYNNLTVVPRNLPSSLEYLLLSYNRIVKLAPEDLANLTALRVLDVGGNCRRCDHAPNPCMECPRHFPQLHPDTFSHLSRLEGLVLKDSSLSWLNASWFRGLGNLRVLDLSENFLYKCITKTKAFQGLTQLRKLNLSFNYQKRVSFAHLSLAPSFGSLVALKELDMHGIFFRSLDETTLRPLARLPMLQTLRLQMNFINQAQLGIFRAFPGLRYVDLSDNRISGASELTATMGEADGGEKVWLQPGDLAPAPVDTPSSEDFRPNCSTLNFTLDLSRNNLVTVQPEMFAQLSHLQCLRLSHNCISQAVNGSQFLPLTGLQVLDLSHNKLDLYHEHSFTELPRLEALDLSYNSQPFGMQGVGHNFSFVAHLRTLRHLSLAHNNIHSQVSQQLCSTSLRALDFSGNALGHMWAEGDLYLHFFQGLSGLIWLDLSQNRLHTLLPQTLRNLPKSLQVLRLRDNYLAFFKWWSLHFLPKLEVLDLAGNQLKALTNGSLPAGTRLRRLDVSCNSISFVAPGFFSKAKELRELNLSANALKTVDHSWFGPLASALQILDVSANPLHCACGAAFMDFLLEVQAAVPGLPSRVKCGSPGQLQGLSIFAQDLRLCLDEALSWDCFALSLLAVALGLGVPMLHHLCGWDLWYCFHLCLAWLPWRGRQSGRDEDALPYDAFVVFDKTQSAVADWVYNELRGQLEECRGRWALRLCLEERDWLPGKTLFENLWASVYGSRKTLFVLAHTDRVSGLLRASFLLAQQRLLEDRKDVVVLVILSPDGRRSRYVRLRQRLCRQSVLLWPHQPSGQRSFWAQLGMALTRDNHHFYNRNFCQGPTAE
From the text: (§1) Unlike the HEK reporter cell lines, human peripheral blood mononuclear cell (PBMC) represents primary human immune cells in blood mainly consisting of lymphocytes, monocytes, and dendritic cells. These cells express TLR7, TLR8, or TLR9, and therefore are natural responders to respective ligand stimulation. Upon activation of these TLRs, PBMCs secrete similar cytokines and chemokines in vitro and in vivo, and therefore the in vitro potency of a TLR7/8/9 antagonist in human PBMC is readily translatable to its pharmacodynamics response in vivo.
(§2) Human peripheral blood mononuclear cells (PBMC) were isolated from freshly-drawn lithium-heparinized (Lithium Heparin Plus blood Collection tube, BD Vacutainer®) healthy donor whole blood by density gradient (Ficoll-PaqueTM PLUS, GE Healthcare life Sciences). Briefly, […] was diluted with 25 mL PBS (without Ca^2+, Mg^2+) in a 50 mL conical tube with porous barrier (Leucosep tube, Greiner bio-one), where 15.5 mL Ficoll-Paque was under laid after spinning. Tubes were centrifuged for 20 minutes at 800×g (1946 rpm) with the brake in the off position, and PBMC were collected from the buffy coat. Cells were then washed twice in PBS, and red blood cells were lysed by suspension in 2 mL (Red Blood Cell Lysis Buffer, Alfa Aesar) for 5-10 minutes at room temperature. After a final wash in PBS, PBMC were resuspended at a final concentration of 2×10^6 cells/mL in RPMI-1640 media with GlutaMAXTM (Gibco) supplemented with 10% Fetal Bovine Serum (Sigma) and plated at 150µL/well (3×10^5 cells/well) in tissue culture treated round bottom 96-well plates (Corning Incorporated). Antagonist compounds (compounds of this invention) solubilized and serial diluted in 100% DMSO were added in duplicate to cells to yield a final concentration of 1% DMSO (v/v). PBMC were incubated with antagonist compounds for 30 minutes at 37° C., 5% CO2 before adding various TLR agonist reagents in 48 µL complete media per well as follows (final concentrations indicated): CpG ODN 2216 (InvivoGen) at 1 µM for TLR9, ORN 06/LyoVec (InvivoGen) at 1 µg/mL for TLR8 and R848 (InvivoGen) at 1 µg/mL for TLR7 and TLR8. PBMC were incubated overnight at 37° C. with 5% CO2. Cell culture supernatants were collected, and levels of various human cytokines were assessed by Luminex assay (ProcartaPlexTM Multiplex Immunoassay, Invitrogen) or ELISA procedure according to the manufacturer’s recommended protocol (eBioscience, ThermoFisher Scientific). Viability of the cells was also checked with Cell Viability Assay (CellTiter Glo®Luminescent Cell Viability Assay, Promega).

TLR7 and TLR8 = assay: Human PBMC cell-based assay, TLR7 and TLR8 (R848); details: R848 at 1 µg/mL, overnight, cytokine levels, read-out: hPBMC/TLR78 IC50
From the text: as §1, §2

Compound | IC50 (TLR9) [nM] | IC50 (TLR7 and TLR8) [nM]
CCc1nc(N2CCN(Cc3cnc(N4CC5(CNCCO5)C4)nc3)CC2)ccc1-c1cc(C)c(=O)n(C)c1 [Example 1, 5-[2-ethyl-6-[4-[[2-(5-oxa-2,8-diazaspiro[3.5]nonan-2-yl)pyrimidin-5-yl]methyl]piperazin-1-yl]-3-pyridyl]-1,3-dimethyl-pyridin-2-one] | 388 | 
CCc1nc(N2CCN(Cc3ccc(N4CC5(CNCCO5)C4)nc3)CC2)ccc1-c1cc(C)c(=O)n(C)c1 [Example 2, 5-[2-ethyl-6-[4-[[6-(5-oxa-2,8-diazaspiro[3.5]nonan-2-yl)-3 pyridyl]methyl]piperazin-1-yl]-3-pyridyl]-1,3-dimethyl-pyridin-2-one] | 362 | 7
CCc1nc(N2CCN(Cc3cnc(N4CC(C)(N)C4)nc3)CC2)ccc1-c1cc(C)c(=O)n(C)c1 [Example 3, 5-[6-[4-[[2-(3-amino-3-methyl-azetidin-1-yl)pyrimidin-5-yl]methyl]piperazin-1-yl]-2-ethyl-3-pyridyl]-1,3-dimethyl-pyridin-2-one] | 377 | 21
Cc1cc(-c2ccc(N3CCN(Cc4cnc(N5CC6(CNCCO6)C5)nc4)CC3)nc2C(C)C)cn(C)c1=O [Example 6, 5-[2-isopropyl-6-[4-[[2-(5-oxa-2,8-diazaspiro[3.5]nonan-2-yl)pyrimidin-5-yl]methyl]piperazin-1-yl]-3-pyridyl]-1,3-dimethyl-pyridin-2-one] | 730 | 
Cc1cc(-c2ccc(N3CCN4CCN(c5ccc(N6CCNCC6)nc5)CC4C3)nc2C(C)C)cn(C)c1=O (centres unmarked) [Example 16, 5-[2-isopropyl-6-[8-(6-piperazin-1-yl-3-pyridyl)-3,4,6,7,9,9a-hexahydro-1H-pyrazino[1,2-a]pyrazin-2-yl]-3-pyridyl]-1,3-dimethyl-pyridin-2-one] | 263 | 2
Cc1cc(-c2ccc(N3CCC(N4CCNCC4)CC3)nc2C(C)C)cn(C)c1=O [Example 18, 5-[2-isopropyl-6-(4-piperazin-1-yl-1-piperidyl)-3-pyridyl]-1,3-dimethyl-pyridin-2-one] | 700 | 

Molecules with a lower IC50 (TLR9), results first:

IC50 (TLR9) [nM] | IC50 (TLR7 and TLR8) [nM] | Compound
115 | 12 | Cc1cc(-c2ccc(N3CCN(Cc4ncc(N5CCNCC5)cn4)CC3)nc2C(C)C)cn(C)c1=O [Example 12, 5-[2-isopropyl-6-[4-[(5-piperazin-1-ylpyrimidin-2-yl)methyl]piperazin-1-yl]-3-pyridyl]-1,3-dimethyl-pyridin-2-one]
101 |  | Cc1cc(-c2ccc(N3CCN(Cc4ccc(N5CCNCC5)cn4)CC3)nc2C(C)C)cn(C)c1=O [Example 7, 5-[2-isopropyl-6-[4-[(5-piperazin-1-yl-2-pyridyl)methyl]piperazin-1-yl]-3-pyridyl]-1,3-dimethyl-pyridin-2-one]
47 | 0.4 | Cc1cc(-c2ccc(N3CCN(Cc4cnc(N5CCNCC5)nc4)CC3)nc2C(C)C)cn(C)c1=O [Example 9, 5-[2-isopropyl-6-[4-[(2-piperazin-1-ylpyrimidin-5-yl)methyl]piperazin-1-yl]-3-pyridyl]-1,3-dimethyl-pyridin-2-one]
